{
  "source": "patent EP0369664B1",
  "about": "“Fish CRF” (THE SALK INSTITUTE FOR BIOLOGICAL STUDIES, priority 1988, dated 1994)",
  "key": {"[1]": {"experiment": "vasodilatory-hypotensive activity, lowering of systemic blood pressure", "assay_type": "in vivo", "details": "for vasodilatory-hypotensive activity: called mammalian for Example III only; for systemic blood pressure: in vivo"}, "[2]": {"system": "secretion of ACTH and β-END-LI", "experiment": "secretion of ACTH and β-END-LI, test system not specified"}, "[3]": {"system": "ACTH and β-END-LI secretion", "experiment": "ACTH and β-END-LI secretion in vivo in several rat preparations"}, "teleost fish pituitaries": {"system": "teleost fish pituitaries", "experiment": "secretion of ACTH by teleost fish pituitaries", "assay_type": "cell-based"}, "ACTH and β-endorphin": {"system": "ACTH and β-endorphin", "experiment": "ACTH and β-endorphin activities in vitro and in vivo, general statement"}, "[4]": {"experiment": "lowering of blood pressure, general statement", "assay_type": "in vivo", "details": "for an extended time period"}, "[5]": {"experiment": "activity and learning performance after administration into the ventricles", "assay_type": "in vivo", "details": "rats, administered into the ventricles"}, "[6]": {"experiment": "blood pressure in the rat", "assay_type": "in vivo"}, "[7]": {"system": "pituitary-adrenalcortical axis", "experiment": "stimulation of the pituitary-adrenalcortical axis and levels of pro-opiomelanocortin products", "details": "in vivo"}, "[8]": {"experiment": "blood pressure in the dog", "assay_type": "in vivo"}, "[9]": {"system": "cultured rat pituitary cells", "experiment": "secretion of ACTH and β-endorphin by cultured rat pituitary cells", "assay_type": "cell-based"}, "[10]": {"details": "in mammals; reported; cited from earlier work"}, "[11]": {"system": "secretion of ACTH and β-endorphin", "details": "reported; cited from earlier work"}, "gastric acid production": {"system": "gastric acid production", "details": "in vivo; cited from earlier work"}},
  "note": "Like-named read-outs stand apart in the source and are kept apart here. No end group written: not given here.",
  "data": [
    {"substance": "Ac-SEEPPISLDLTFHLLREVLEMARAEQLAQQAHSNRKMMEIF-NH2 [II]", "values": [
      {"measurement": "vasodilatory-hypotensive activity", "setting": "[1]", "result": "causes vasodilatory-hypotensive activity"},
      {"measurement": "systemic blood pressure", "setting": "[1]", "result": "lowering"},
      {"measurement": "secretion of ACTH", "setting": "[2]", "result": "stimulates"},
      {"measurement": "secretion of β-END-LI", "setting": "[2]", "result": "stimulates"}
    ]},
    {"substance": "SEEPPISLDLTFHLLREVLEMARAEQLAQQAHSNRKMMEIF-NH2 [Example I]", "values": [
      {"measurement": "ACTH secretion", "setting": "[3]", "result": "stimulates"},
      {"measurement": "β-END-LI secretion", "setting": "[3]", "result": "stimulates"},
      {"measurement": "secretion of ACTH", "setting": "teleost fish pituitaries", "result": "stimulates"},
      {"measurement": "ACTH activies", "setting": "ACTH and β-endorphin", "result": "stimulates"},
      {"measurement": "β-endorphin activies", "setting": "ACTH and β-endorphin", "result": "stimulates"},
      {"measurement": "blood pressure", "setting": "[4]", "result": "substantially lowers"},
      {"measurement": "activity", "setting": "[5]", "result": "increases"},
      {"measurement": "learning performance", "setting": "[5]", "result": "improves"},
      {"measurement": "blood pressure", "setting": "[6]", "result": "marked fall"},
      {"measurement": "levels of ACTH, β-END, β-lipotropin, other pro-opiomelanocortin gene products and corticosterone", "setting": "[7]", "result": "elevates"},
      {"measurement": "pituitary-adrenalcortical axis", "setting": "[7]", "result": "profoundly stimulates"},
      {"measurement": "blood pressure", "setting": "[8]", "result": "sustained depression"},
      {"measurement": "secretion of ACTH", "setting": "[9]", "result": "stimulates"},
      {"measurement": "secretion of β-endorphin", "setting": "[9]", "result": "stimulates"}
    ]},
    {"substance": "Sauvagine", "values": [
      {"measurement": "blood pressure", "setting": "[10]", "result": "lowering"},
      {"measurement": "secretion of ACTH", "setting": "[11]", "result": "stimulating"},
      {"measurement": "secretion of β-endorphin", "setting": "[11]", "result": "stimulating"}
    ]},
    {"substance": "oCRF: ovine corticotropin releasing factor, characterized in 1981, U.S. Patent No. 4,415,558 (H-SQEPPISLDLTFHLLREVLEMTKADQLAQQAHSNRKLLDIA-NH2; ends and bridges not checked; UniProt P01142 148-188, looked up)", "values": [
      {"measurement": "gastric acid production", "setting": "gastric acid production", "result": "inhibits"},
      {"measurement": "blood pressure", "setting": "[10]", "result": "lowering"},
      {"measurement": "secretion of ACTH", "setting": "[11]", "result": "stimulating"},
      {"measurement": "secretion of β-endorphin", "setting": "[11]", "result": "stimulating"}
    ]},
    {"substance": "PPISLDLTFHLLREVLEMARAEQLAQQAHSNRKMMEIF-NH2 [III]", "values": [
      {"measurement": "vasodilatory-hypotensive activity", "setting": "[1]", "result": "significant"},
      {"measurement": "systemic blood pressure", "setting": "[1]", "result": "lowering"},
      {"measurement": "secretion of ACTH", "setting": "[2]", "result": "stimulates"}
    ]}
  ]
}
